Experiment: xn = mol fraction of the nth substance listed
Conditions: 101 kPa, Liquid; for viscosity: Capillary tube (Ostwald / Ubbelohde) method; for mass density: Vibrating tube method

OCCOCCO [diethylene glycol] + CCC(C)O
Conditions | mass density, 298.15 K [kg/m3] | mass density, 303.15 K [kg/m3] | mass density, 308.15 K [kg/m3] | mass density, 313.15 K [kg/m3] | viscosity, 298.15 K [mPa·s] | viscosity, 303.15 K [mPa·s] | viscosity, 308.15 K [mPa·s] | viscosity, 313.15 K [mPa·s]
x1 = 0.0808 | 829.4 | 824.8 | 819.9 | 815.3 | 3.69 | – | – | –
x1 = 0.0833 | – | – | – | – | – | 3.1 | 2.65 | 2.22
x1 = 0.1598 | 855.3 | 850.5 | 845.5 | 840.7 | 4.42 | – | – | –
x1 = 0.161 | – | – | – | – | – | 3.69 | 3.17 | 2.74
x1 = 0.2398 | 881.3 | 876.3 | 871.2 | 866.3 | 5.33 | – | – | –
x1 = 0.2402 | – | – | – | – | – | 4.41 | 3.77 | 3.31
x1 = 0.3494 | 916.4 | 911.3 | 906.2 | 901.2 | 6.94 | – | – | –
x1 = 0.3498 | – | – | – | – | – | 5.69 | 4.77 | 4.25
x1 = 0.4399 | 944.9 | 939.8 | 934.7 | 929.8 | 8.61 | – | – | –
x1 = 0.441 | – | – | – | – | – | 7.03 | 5.79 | 5.16
x1 = 0.5591 | 981.9 | 977.8 | 971.9 | 967.1 | 11.34 | – | – | –
x1 = 0.5609 | – | – | – | – | – | 9.25 | 7.44 | 6.62
x1 = 0.6498 | – | – | – | – | – | 11.31 | 8.98 | 7.93
x1 = 0.6501 | 1009.7 | 1004.9 | 1000.1 | 995.4 | 13.86 | – | – | –
x1 = 0.7398 | – | – | – | – | – | 13.64 | 10.74 | 9.42
x1 = 0.7399 | 1036.7 | 1032.3 | 1027.6 | 1023.1 | 16.72 | – | – | –
x1 = 0.8499 | 1069.2 | 1065.1 | 1060.9 | 1056.8 | 20.75 | – | – | –
x1 = 0.8501 | – | – | – | – | – | 16.88 | 13.24 | 11.5
x1 = 0.9399 | 1095.3 | 1091.7 | 1087.9 | 1084.2 | 24.46 | – | – | –
x1 = 0.9405 | – | – | – | – | – | 19.8 | 15.56 | 13.42
x1 = 1 | 1112.4 | 1109.1 | 1105.6 | 1102.3 | 27.15 | 21.87 | 17.26 | 14.81

CCC(C)O (configuration not stated) [butan-2-ol] + OCCOCCO
x2 = 0
Conditions | mass density [kg/m3] | viscosity [mPa·s]
298.15 K | 802.7 | 3.1
303.15 K | 798.3 | 2.6
308.15 K | 793.6 | 2.15
313.15 K | 789.1 | 1.73

OCCOCCO [diethylene glycol] + CCCCCC(C)O
x1 = 1
Conditions | mass density [kg/m3] | viscosity [mPa·s]
298.15 K | 1112.4 | 27.14
303.15 K | 1109.1 | 21.87
308.15 K | 1105.6 | 17.26
313.15 K | 1102.3 | 14.81

CC(C)O [propan-2-ol] + OCCOCCO
x2 = 0
Conditions | mass density [kg/m3] | viscosity [mPa·s]
298.15 K | 781.1 | 2.06
303.15 K | 776.7 | 1.79
308.15 K | 771.8 | 1.56
313.15 K | 767.4 | 1.38

— the NIST ThermoML archive (doi:10.1021/je300827f)
